In PubChem BioAssay (NCI):
Several values for one entry are separate records, joined by “and”; a condition that tells them apart may be missing. Equal values may be shown once.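 Exposure lasted 48 hours, with cells grown in 96-well plates and compounds tested at five concentrations. The concentration for 50% growth inhibition is given as GI50. TGI: concentration producing complete growth inhibition.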

System: KM12 colon
Experiment: inhibition of tumour cell growth, NCI panel, 48 h

Compared with `COc1c(C)c(C/C=C(\C)CCCCO[Si](c2ccccc2)(c2ccccc2)C(C)(C)C)c(OC)c(OC)c1OC`, `C=C1c2nc3ccccc3n2C=C(c2ccccc2)N1c1ccc([N+](=O)[O-])cc1` is 1.9-fold lower in TGI: 26.4 µM for the first, 13.8 µM for the second.

`CN1CCN([C@H]2C[C@H]3[C@@H]4CC=C5C[C@@H](O)CC[C@]5(C)[C@H]4CC[C@]3(C)C2=O)CC1` and `C[C@@]12C[C@@H](c3ccccc3O1)N1CCCCSC1=N2` cannot be ordered by TGI: greater than 100 µM for the first, greater than 100 µM for the second.

`CCOC(=O)Nn1c(C)nnc1-c1ccccc1` and `Cc1cc(O)c2c(=O)c3ccccc3[nH]c2c1` cannot be ordered by TGI: greater than 100 µM for the first, greater than 100 µM for the second.

`N=c1n(C(=O)N2CCCC2)c2cc(Cl)ccc2n1C1=NCCN1` and `Nc1cccc2cc(Cl)cnc12` cannot be ordered by TGI: greater than 100 µM for the first, greater than 100 µM for the second.

System: LOX IMVI melanoma
Experiment: inhibition of tumour cell growth, NCI panel, 48 h

`CC(C)c1ccc(/C=C2/C=C(c3ccc4ccccc4c3)OC2=O)cc1` and `C=C1c2nc3ccccc3n2C=C(c2ccccc2)N1c1ccc([N+](=O)[O-])cc1` cannot be ordered by TGI: greater than 100 µM for the first, greater than 100 µM for the second.

`COc1ccc(C(OCC2OC(n3cc(C)c(=O)[nH]c3=O)CC2n2cc(Cn3cc(I)c(=O)[nH]c3=O)nn2)(c2ccccc2)c2ccccc2)cc1` (configuration not stated) and `O=S1(=O)NC(=NCc2c[nH]c3ccccc23)N(c2ccccc2)c2ccncc21` cannot be ordered by TGI: greater than 100 µM for the first, greater than 100 µM for the second.

`CC1=CC2C(O1)C1C(=O)C=CC(=O)C1=CC2[N+](=O)[O-]` (configuration not stated) and `Cc1cc(O)c2c(=O)c3ccccc3[nH]c2c1` cannot be ordered by TGI: greater than 52.3 µM for the first, 64.3 µM for the second.

Going from `C=C(Br)C(C)(Cl)CCC(Br)C(C)(C)Cl` (configuration not stated) to `COc1c(C)c(C/C=C(\C)CCCCO[Si](c2ccccc2)(c2ccccc2)C(C)(C)C)c(OC)c(OC)c1OC`, the TGI rises from 38 µM to 58.3 µM (1.5-fold).

`O=C(CCC(=O)c1ccc(Cl)cc1)NO` and `Nc1cccc2cc(Cl)cnc12` cannot be ordered by TGI: greater than 100 µM for the first, greater than 100 µM for the second.

`CN1CCN([C@H]2C[C@H]3[C@@H]4CC=C5C[C@@H](O)CC[C@]5(C)[C@H]4CC[C@]3(C)C2=O)CC1` and `C[C@@]12C[C@@H](c3ccccc3O1)N1CCCCSC1=N2` cannot be ordered by TGI: greater than 100 µM for the first, greater than 100 µM for the second.

`CCOC(=O)Nn1c(C)nnc1-c1ccccc1` and `N=c1n(C(=O)N2CCCC2)c2cc(Cl)ccc2n1C1=NCCN1` cannot be ordered by TGI: greater than 100 µM for the first, greater than 100 µM for the second.

Molecule `Cc1c2cnccc2c(C)c2c1c1ccccc1n2CCCN` has a GI50 of 0.163 µM.

In the case of `Cc1c2cnccc2c(C)c2c1c1ccccc1n2CCCN`, the TGI is reported as 0.402 µM and 0.569 µM.

System: NCI/ADR-RES ovarian
Experiment: inhibition of tumour cell growth, NCI panel, 48 h

Compared with `CC(C)c1ccc(/C=C2/C=C(c3ccc4ccccc4c3)OC2=O)cc1`, `C=C1c2nc3ccccc3n2C=C(c2ccccc2)N1c1ccc([N+](=O)[O-])cc1` is lower in TGI: greater than 100 µM for the first, 44.5 µM for the second.

`COc1ccc(C(OCC2OC(n3cc(C)c(=O)[nH]c3=O)CC2n2cc(Cn3cc(I)c(=O)[nH]c3=O)nn2)(c2ccccc2)c2ccccc2)cc1` (configuration not stated) and `O=S1(=O)NC(=NCc2c[nH]c3ccccc23)N(c2ccccc2)c2ccncc21` cannot be ordered by TGI: greater than 100 µM for the first, greater than 100 µM for the second.

`CC1=CC2C(O1)C1C(=O)C=CC(=O)C1=CC2[N+](=O)[O-]` (configuration not stated) and `Cc1cc(O)c2c(=O)c3ccccc3[nH]c2c1` cannot be ordered by TGI: greater than 77.9 µM for the first, greater than 100 µM for the second.

First: C=C(Br)C(C)(Cl)CCC(Br)C(C)(C)Cl (configuration not stated)
Second: COc1c(C)c(C/C=C(\C)CCCCO[Si](c2ccccc2)(c2ccccc2)C(C)(C)C)c(OC)c(OC)c1OC
The TGI of the first is higher: greater than 100 µM for the first, 35.1 µM for the second.

`O=C(CCC(=O)c1ccc(Cl)cc1)NO` and `Nc1cccc2cc(Cl)cnc12` cannot be ordered by TGI: greater than 100 µM for the first, greater than 100 µM for the second.

`CN1CCN([C@H]2C[C@H]3[C@@H]4CC=C5C[C@@H](O)CC[C@]5(C)[C@H]4CC[C@]3(C)C2=O)CC1` and `C[C@@]12C[C@@H](c3ccccc3O1)N1CCCCSC1=N2` cannot be ordered by TGI: greater than 100 µM for the first, greater than 100 µM for the second.

`CCOC(=O)Nn1c(C)nnc1-c1ccccc1` and `N=c1n(C(=O)N2CCCC2)c2cc(Cl)ccc2n1C1=NCCN1` cannot be ordered by TGI: greater than 100 µM for the first, greater than 100 µM for the second.

In the case of `Cc1c2cnccc2c(C)c2c1c1ccccc1n2CCCN`, the TGI is reported as 1.04 µM and 1.16 µM.

System: SF-539 CNS
Experiment: inhibition of tumour cell growth, NCI panel, 48 h

Compared with `CC(C)c1ccc(/C=C2/C=C(c3ccc4ccccc4c3)OC2=O)cc1`, `C=C1c2nc3ccccc3n2C=C(c2ccccc2)N1c1ccc([N+](=O)[O-])cc1` is lower in TGI: greater than 100 µM for the first, 3.04 µM for the second.

`COc1ccc(C(OCC2OC(n3cc(C)c(=O)[nH]c3=O)CC2n2cc(Cn3cc(I)c(=O)[nH]c3=O)nn2)(c2ccccc2)c2ccccc2)cc1` (configuration not stated) and `O=S1(=O)NC(=NCc2c[nH]c3ccccc23)N(c2ccccc2)c2ccncc21` cannot be ordered by TGI: greater than 100 µM for the first, greater than 100 µM for the second.

First: CC1=CC2C(O1)C1C(=O)C=CC(=O)C1=CC2[N+](=O)[O-] (configuration not stated)
Second: Cc1cc(O)c2c(=O)c3ccccc3[nH]c2c1
The TGI of the first is 2.9-fold higher: 96.5 µM for the first, 33 µM for the second.

`C=C(Br)C(C)(Cl)CCC(Br)C(C)(C)Cl` (configuration not stated) and `COc1c(C)c(C/C=C(\C)CCCCO[Si](c2ccccc2)(c2ccccc2)C(C)(C)C)c(OC)c(OC)c1OC` cannot be ordered by TGI: greater than 100 µM for the first, greater than 46.4 µM for the second.

Going from `Cc1c2cnccc2c(C)c2c1c1ccccc1n2CCCN` to `CCOC(=O)Nn1c(C)nnc1-c1ccccc1`, the TGI rises from 1.35 µM to greater than 100 µM.

`O=C(CCC(=O)c1ccc(Cl)cc1)NO` and `Nc1cccc2cc(Cl)cnc12` cannot be ordered by TGI: greater than 100 µM for the first, greater than 100 µM for the second.

`CN1CCN([C@H]2C[C@H]3[C@@H]4CC=C5C[C@@H](O)CC[C@]5(C)[C@H]4CC[C@]3(C)C2=O)CC1` and `C[C@@]12C[C@@H](c3ccccc3O1)N1CCCCSC1=N2` cannot be ordered by TGI: greater than 100 µM for the first, greater than 100 µM for the second.

With `N=c1n(C(=O)N2CCCC2)c2cc(Cl)ccc2n1C1=NCCN1` the TGI was greater than 100 µM.

In the case of `Cc1c2cnccc2c(C)c2c1c1ccccc1n2CCCN`, the GI50 is reported as 0.317 µM.

System: SN12C renal
Experiment: inhibition of tumour cell growth, NCI panel, 48 h

`CC(C)c1ccc(/C=C2/C=C(c3ccc4ccccc4c3)OC2=O)cc1` and `C=C1c2nc3ccccc3n2C=C(c2ccccc2)N1c1ccc([N+](=O)[O-])cc1` cannot be ordered by TGI: greater than 100 µM for the first, greater than 95.2 µM for the second.

`COc1ccc(C(OCC2OC(n3cc(C)c(=O)[nH]c3=O)CC2n2cc(Cn3cc(I)c(=O)[nH]c3=O)nn2)(c2ccccc2)c2ccccc2)cc1` (configuration not stated) and `O=S1(=O)NC(=NCc2c[nH]c3ccccc23)N(c2ccccc2)c2ccncc21` cannot be ordered by TGI: greater than 100 µM for the first, greater than 100 µM for the second.

Going from `CC1=CC2C(O1)C1C(=O)C=CC(=O)C1=CC2[N+](=O)[O-]` (configuration not stated) to `Cc1cc(O)c2c(=O)c3ccccc3[nH]c2c1`, the TGI rises from 39.6 µM to greater than 100 µM.

`C=C(Br)C(C)(Cl)CCC(Br)C(C)(C)Cl` (configuration not stated) and `COc1c(C)c(C/C=C(\C)CCCCO[Si](c2ccccc2)(c2ccccc2)C(C)(C)C)c(OC)c(OC)c1OC` cannot be ordered by TGI: greater than 100 µM for the first, greater than 46.3 µM for the second.

`O=C(CCC(=O)c1ccc(Cl)cc1)NO` and `Nc1cccc2cc(Cl)cnc12` cannot be ordered by TGI: greater than 100 µM for the first, greater than 100 µM for the second.

`CN1CCN([C@H]2C[C@H]3[C@@H]4CC=C5C[C@@H](O)CC[C@]5(C)[C@H]4CC[C@]3(C)C2=O)CC1` and `C[C@@]12C[C@@H](c3ccccc3O1)N1CCCCSC1=N2` cannot be ordered by TGI: greater than 100 µM for the first, greater than 100 µM for the second.

`CCOC(=O)Nn1c(C)nnc1-c1ccccc1` and `N=c1n(C(=O)N2CCCC2)c2cc(Cl)ccc2n1C1=NCCN1` cannot be ordered by TGI: greater than 100 µM for the first, greater than 100 µM for the second.

`Cc1c2cnccc2c(C)c2c1c1ccccc1n2CCCN` showed a GI50 of 0.25 µM.

With `Cc1c2cnccc2c(C)c2c1c1ccccc1n2CCCN` the TGI was 1.36 µM and 1.1 µM.

System: SNB-19 CNS
Experiment: inhibition of tumour cell growth, NCI panel, 48 h

First: CC(C)c1ccc(/C=C2/C=C(c3ccc4ccccc4c3)OC2=O)cc1
Second: C=C1c2nc3ccccc3n2C=C(c2ccccc2)N1c1ccc([N+](=O)[O-])cc1
The TGI of the first is higher: greater than 100 µM for the first, 24.4 µM for the second.

`COc1ccc(C(OCC2OC(n3cc(C)c(=O)[nH]c3=O)CC2n2cc(Cn3cc(I)c(=O)[nH]c3=O)nn2)(c2ccccc2)c2ccccc2)cc1` (configuration not stated) and `O=S1(=O)NC(=NCc2c[nH]c3ccccc23)N(c2ccccc2)c2ccncc21` cannot be ordered by TGI: greater than 100 µM for the first, greater than 100 µM for the second.

`CC1=CC2C(O1)C1C(=O)C=CC(=O)C1=CC2[N+](=O)[O-]` (configuration not stated) and `Cc1cc(O)c2c(=O)c3ccccc3[nH]c2c1` cannot be ordered by TGI: greater than 72.4 µM for the first, greater than 100 µM for the second.

`C=C(Br)C(C)(Cl)CCC(Br)C(C)(C)Cl` (configuration not stated) and `COc1c(C)c(C/C=C(\C)CCCCO[Si](c2ccccc2)(c2ccccc2)C(C)(C)C)c(OC)c(OC)c1OC` cannot be ordered by TGI: greater than 100 µM for the first, greater than 46.4 µM for the second.

`O=C(CCC(=O)c1ccc(Cl)cc1)NO` and `Nc1cccc2cc(Cl)cnc12` cannot be ordered by TGI: greater than 100 µM for the first, greater than 100 µM for the second.

`CN1CCN([C@H]2C[C@H]3[C@@H]4CC=C5C[C@@H](O)CC[C@]5(C)[C@H]4CC[C@]3(C)C2=O)CC1` and `C[C@@]12C[C@@H](c3ccccc3O1)N1CCCCSC1=N2` cannot be ordered by TGI: greater than 100 µM for the first, greater than 100 µM for the second.

`CCOC(=O)Nn1c(C)nnc1-c1ccccc1` and `N=c1n(C(=O)N2CCCC2)c2cc(Cl)ccc2n1C1=NCCN1` cannot be ordered by TGI: greater than 100 µM for the first, greater than 100 µM for the second.

For `Cc1c2cnccc2c(C)c2c1c1ccccc1n2CCCN`, the GI50 was 0.0945 µM.

In the case of `Cc1c2cnccc2c(C)c2c1c1ccccc1n2CCCN`, the TGI is reported as 2.19 µM and 0.781 µM.
